“Also recorded” adds a separate entry of the source.
Legend:
[1] = test system: mice; test: Elevated plus-maze, anxiety-related behavior; assay type: in vivo; conditions: single dose 20 mg/kg PO
Experimental: Elevated plus-maze: Anxiety-related behaviors were assessed using the EPM test as reported previously. Animals were placed on the 5×5 cm central platform of an apparatus from which four arms, 30 cm×5 cm extended. Two of the arms (the closed arms) are enclosed within 15 cm high walls, and the two other arms (the open arms) have 1 cm high rims. The whole maze is elevated 75 cm above the ground. During the 6 min test time, the number of entries to each arm type (closed or open arms, frequencies) and the time spent in each type of arm (closed or open arms, duration) during the test were measured.

[2] = target: CB2 receptor (Homo sapiens (Human), UniProt P34972); test: CB2 receptor radioligand binding assay, [3H]CP-55,940 displacement, human kidney membranes
Sequence of CB2 receptor (P34972 whole entry): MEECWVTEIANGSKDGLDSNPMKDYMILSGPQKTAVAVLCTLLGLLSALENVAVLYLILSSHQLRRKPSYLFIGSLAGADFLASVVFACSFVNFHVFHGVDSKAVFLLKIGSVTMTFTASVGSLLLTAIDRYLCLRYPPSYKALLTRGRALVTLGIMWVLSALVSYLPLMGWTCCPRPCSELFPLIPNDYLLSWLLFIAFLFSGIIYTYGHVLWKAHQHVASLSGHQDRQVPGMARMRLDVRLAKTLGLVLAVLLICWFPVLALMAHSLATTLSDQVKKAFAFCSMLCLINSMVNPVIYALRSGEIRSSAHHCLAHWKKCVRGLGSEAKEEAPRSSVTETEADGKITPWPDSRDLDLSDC
Experimental: (§1) Radioligand binding assays: Binding affinity was determined by a radioligand binding assay. The different BB8-conjugates binding to CB1 and CB2 receptors was assessed in competition displacement assays using [^3H]CP-55.940 as the radioligand and crude membranes from mouse brain for CB1 receptor and human kidney cells for CB2 receptor.
CB2 receptor binding assay: Human kidney membranes were used as the source material for CB2 receptors. The displacement of specifically bound tritiated CP-55,940 from these membranes using a standard filtration assay was used to determine the Ki values for the test compounds. Briefly, 1.25 μg of protein was incubated for 1.5 h at 30° C. in the presence of 0.5 nM [^3H]CP-55,940 and various concentrations (10^−5M-10^−11M) of test compound/control, final volume of 1 mL. The incubation was terminated by rapid filtration and washing, and the amount of specifically bound [^3H]CP-55,940 was determined. Briefly, membranes with bound [^3H]CP-55,940 were separated and washed from free ligand by vacuum filtration, adsorbing the membrane onto a Whatman glass microfiber filter paper ([…], Cat #1821271). Finally, the Whatman filter paper with adsorbed membranes was cut and placed in scintillation liquid (Ultima Gold) for 1 h at 25° C. followed by a β counter reading of bound [^3H]CP-55,940 radioligand. All data were in triplicates with Ki values determined using GraphPad Prism 7.02 analysis software.

[3] = Pharmacokinetics after oral and IV dosing; assay type: in vivo, C57BL/6J mice; conditions: for Cmax: male, C57BL/6J, po
Experimental: Pharmacokinetics: Male C57BL/6J mice (7-9 weeks, N=3 in each group) were used in this study. Mice were fasted at least 12 hr prior to administration of test article and have access to food ad libitum 4 hr post dosing. Appropriate amount of test article was accurately weighted and mixed with the appropriate volume of vehicle to get a clear oral solution. The formulations were prepared on the day of dosing, and mice were dosed via either orally gavage or intravenous injection, up to 4 hr after formulations were prepared. About 30 μL blood per time point was collected from the saphenous vein followed by plasma preparation. Dose formulation and sample analysis was performed by LC-MS/MS method. Plasma concentration versus time data was analyzed by non-compartmental method.

[4] = test system: mice; test: Catalepsy test (bar test), WIN55,212-induced; assay type: in vivo; conditions: single dose 20 mg/kg PO 30 min prior to WIN55,212 3 mg/kg IP
Experimental: Catalepsy test: Catalepsy was assayed using the bar test. Briefly, mice were removed from their home cage, and their forepaws were placed on a horizontal bar, 0.5 cm in diameter, positioned 4 cm above the bench surface. Vehicle-treated mice routinely let go of the bar within 2 sec. Cataleptic behavior was defined as the time the animals remained motionless holding on to the bar, with an arbitrary cutoff of 30 sec. The antagonists were given 30 min before the IP injection of 3 mg/kg WIN55,212. The test was performed 60 min after agonist administration.

[5] = test system: P-gp (MDR1); test: MDR1-MDCK II cell permeation assay (bi-directional permeability, P-gp efflux); assay type: in vitro ADME; conditions: dog, MDCK-MDR1, pH 7.4; 2 μM, A to B, 2.5 hours
Summary of the method: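 Compounds at 2 μM (DMSO <1%) in HBSS with 10 mM Hepes, pH 7.4, were applied apically or basolaterally to MDR1-MDCKII monolayers. A-to-B and B-to-A transport was run in duplicate with or without 10 μM GF120918 for 2.5 h at 37° C, 5% CO2. Compounds were quantified by LC-MS/MS, and efflux ratios were determined.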

[6] = target: CB1 receptor (Homo sapiens (Human), UniProt P21554); test: CB1 receptor radioligand binding assay, membranes from human source
Sequence of CB1 receptor (P21554 whole entry): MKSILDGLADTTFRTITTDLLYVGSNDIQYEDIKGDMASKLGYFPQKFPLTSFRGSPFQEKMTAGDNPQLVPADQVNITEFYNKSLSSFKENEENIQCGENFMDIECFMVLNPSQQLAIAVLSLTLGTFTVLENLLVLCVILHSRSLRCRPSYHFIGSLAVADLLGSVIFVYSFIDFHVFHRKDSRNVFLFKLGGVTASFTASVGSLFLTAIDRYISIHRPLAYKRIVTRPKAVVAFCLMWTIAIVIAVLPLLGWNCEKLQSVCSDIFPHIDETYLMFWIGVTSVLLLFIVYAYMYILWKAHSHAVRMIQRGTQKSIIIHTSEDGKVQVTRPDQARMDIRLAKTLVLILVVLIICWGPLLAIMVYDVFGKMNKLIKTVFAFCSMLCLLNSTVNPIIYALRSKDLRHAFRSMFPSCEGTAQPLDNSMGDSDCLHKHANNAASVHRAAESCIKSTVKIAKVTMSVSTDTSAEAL
Experimental: as §1
CB1 receptor binding assay: Mouse brain membranes were used as the source material for CB1 receptors. The displacement of specifically bound tritiated CP-55.940 from these membranes using a standard filtration assay was used to determine the Ki values for the test compounds. Briefly. 20 μg of protein was incubated for 1 h at 30° C. in the presence of 0.5 nM [^3H]CP-55,940 and various concentrations (10^−5M-10^−11M) of test compound/control, final volume of 1 mL. The incubation was terminated by rapid filtration and washing, and the amount of specifically bound [^3H]CP-55,940 was determined. Briefly, membranes with bound [^3H]CP-55,940 were separated and washed from free ligand by vacuum filtration, adsorbing the membrane onto a Whatman glass microfiber filter paper ([…], Cat #1821271). Finally, the Whatman filter paper with adsorbed membranes was cut and placed in scintillation liquid (Ultima Gold) for 1 h at 25° C. followed by a β counter reading of bound [^3H]CP-55,940 radioligand. All data were in triplicates with Ki values determined using GraphPad Prism 7.02 analysis software. […] In some cases, membranes from human source were used to determine CB1 receptor binding affinity.

[7] = mouse, plasma, oral administration of 10 and 20 mg/kg, C57BL/6J male mice

Structure (SMILES)	anxiogenic behavior in the Elevated Plus Maze [1]	hCB2R Ki (nM) [2]	Oral bioavail (%) ([3]; absolute, oral 10 and 20 mg/kg vs IV 1 mg/kg, C57BL/6J male mice)	Cmax ([3]; mouse, plasma, 10 mg/kg, oral 10 mg/kg, mice)	Cmax ([3]; mouse, plasma, 20 mg/kg, oral 20 mg/kg, mice)	Cmax ([3]; mouse, plasma, 20 mg/kg, oral administration of 10 and 20 mg/kg (range over both doses), C57BL/6J male mice)	Tmax [3, 7]	half-life [3, 7]	T1/2 ([3]; oral administration of 10 and 20 mg/kg, C57BL/6J male mice)	WIN55,212-induced catalepsy [4]	Papp at 2.5 h, 2 μM [5]	Ki [6]
Cc1ccc(C)c(OCCCC(C)(C)C(=O)NC2CCCOc3c2nn(-c2ccccc2Cl)c3-c2ccc(Cl)cc2)c1 (stereo not drawn) [BNS822, N-[2-(2-chlorophenyl)-3-(4-chlorophenyl)-5,6,7,8-tetrahydrooxepino[3,2-c]pyrazol-8-yl]-5-(2,5-dimethylphenoxy)-2,2-dimethyl-pentanamide]	nor did it induce a robust anxiogenic response; also recorded: no anxiogenic effect	No binding	8.62-10.59%	283 ng/mL	811 ng/mL	283 to 811 ng/mL	2 h	312 min	5.2 h	did not block; also recorded: no effect	–	–
O=S(=O)(NC1CCCOc2c1nn(-c1ccccc1Cl)c2-c1ccc(Cl)cc1)c1ccc(Cl)cc1 (stereo not drawn) [BNS808, 4-chloro-N-[2-(2-chlorophenyl)-3-(4-chlorophenyl)-5,6,7,8-tetrahydrooxepino[3,2-c]pyrazol-8-yl]benzenesulfonamide]	–	–	–	–	–	–	–	–	–	–	0.26 ×10⁻⁶ cm/s	0.7 nM

— patent US20240189287A1, “PERIPHERALLY RESTRICTED CB1 RECEPTOR BLOCKERS AND USES THEREOF” (BIONANOSIM (BNS) LTD, priority 2021, published 2024)
